From patent publication US20170158702A1, “MULTIVALENT RAS BINDING COMPOUNDS” (KYRAS THERAPEUTICS, INC., priority 2015, published 2017)
Where a name gives a salt, the structure may show the parent alone.

Assays:
Format in all cases: cell-based
[1] = system: MIA PaCa-2; experiment: Viability assay with MIA PaCa-2; conditions: MIA PaCa-2, viability assay per Example 57
Summary of the method: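 MIA PaCa-2 cells were seeded at 1200/well, allowed to adhere overnight, then treated in triplicate with 9-point 2-fold compound dilutions at 0.5% final DMSO. Viability was measured as cellular ATP by CellTiter-Glo luminescence 72 h after compound addition.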

[2] = system: NCI-H460; experiment: Viability assay with NCI-H460 (CellTiter-Glo cytotoxicity assay, 72 h); conditions: NCI-H460 cell line, 72 h after compounds addition
Summary of the method: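 NCI-H460 cells, RPMI 1640 + 10% FBS, seeded 1200/well and adhered overnight, then exposed to compounds at 9 points, 2-fold dilution, in triplicate, 0.5% DMSO final. Cellular ATP measured by CellTiter-Glo luminescence 72 h after addition.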

[3] = system: U2OS; experiment: Viability assay with U2OS; conditions: viability assay per Example 57
Protocol: (§1) NCI-H460 (Epithelial lung tissue; carcinoma; large cell lung cancer) were cultured in RPMI Medium 1640 (Invitrogen-22400105) supplemented with 10% fetal bovine serum (FBS; Invitrogen-10099141). All the cell lines were maintained in a humidified incubator at 37° C. with 5% CO2. Cell culture media and supplements were purchased from Invitrogen, and tissue culture flasks were purchased from Corning, 96-well plates were purchased from Greiner. CellTiter-Glo Luminescent Cell Viability Assay kits were purchased from Promega (Promega-G7573), cells counter Vi-Cell was purchased from Beckman, D300e digital dispenser was purchased from Tecan, detection instrument Envision was purchased from PerkinElmer.
(§2) Paclitaxel was purchased from SELLECK, test compounds, such as any one of the compounds disclosed herein, attained solubility in DMSO and when diluted into culture media. DMSO, solutions containing the test compounds, and culture media were warmed to 37° C. or room temperature for the solution preparation and dilutions.
(§3) NCI-H460 Cell line were seeded in 96-well plates (1200/well) and allowed to adhere to overnight (100 uL/well), for drug treatments with 2 fold dilution, 9 dose points, triplicates or vehicle control, compound stock solutions were prepared in DMSO and use D300e digital dispenser to add compounds to the wells to give the indicated final drug concentrations. Final DMSO concentration was 0.5%. Cellular ATP concentrations were assessed by using the CellTiter-Glo Cell Viability Assay as per the manufacturer's instructions 72 h after compounds addition. Additional cells lines were assayed with any one of the compounds disclosed herein according to the procedures described for the viability assay with NCI-H460.
The viability assay with U2OS (epithelial bone tissue; osteosarcoma) was performed with compounds listed in Table 17 according to the procedures described in Example 57.

[4] = system: NCI-H2023; experiment: Viability assay with NCI-H2023; conditions: NCI-H2023, viability assay per Example 57
Protocol: as §1, §2, §3
A viability assay with NCI-H2023 (stage 3A, adenocarcinoma; non-small cell lung cancer) was performed with compounds listed in Table 16 according to the procedures described in Example 57.

[5] = system: HT-29; experiment: Viability assay with HT-29; conditions: HT-29, viability assay per Example 57
Summary of the method: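 Cells seeded 1200/well, adhered overnight, then treated with 9-point 2-fold compound dilutions in triplicate (0.5% final DMSO). Viability taken as cellular ATP by CellTiter-Glo luminescence 72 h after compound addition.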

SMILES | EC50 [1] | EC50 [2] | EC50 [3] | EC50 [4] | EC50 [5]
NCCCn1cc(-c2ccc(OC(F)(F)F)cc2)c2cc(CN3CCN(Cc4cccc(Cl)c4)CC3)ccc21 [C9; HCl] | ≤ 5 µM | ≤ 5 µM | ≤ 5 µM |  | 
NCCCCn1cc(-c2ccc(OC(F)(F)F)cc2)c2cc(CN3CCN(Cc4c(Cl)cccc4Cl)CC3)ccc21 [C43; HCl] | ≤ 5 µM | ≤ 5 µM | ≤ 5 µM | ≤ 5 µM | 
NCCCn1cc(-c2ccc(OC(F)(F)F)cc2)c2cc(CN3CCN(Cc4cc(F)ccc4Cl)CC3)ccc21 [C165; HCl] | ≤ 5 µM | ≤ 5 µM | ≤ 5 µM |  | 
NCCCn1cc(-c2ccc(OC(F)(F)F)cc2)c2cc(CN3CCN(Cc4cccc(Cl)c4Cl)CC3)ccc21 [C164; HCl] | ≤ 5 µM | ≤ 5 µM | ≤ 5 µM |  | 
CN(CCNCc1ccc2c(c1)c(-c1ccc(OC(F)(F)F)cc1)cn2CCCN)Cc1ccccc1Cl [C173; HCl] | ≤ 5 µM | ≤ 5 µM | ≤ 5 µM |  | 
CC(C)(c1ccccc1Cl)N1CCN(Cc2ccc3c(c2)c(-c2ccc(OC(F)(F)F)cc2)cn3CCCN)CC1 [C166; Formic Acid] | ≤ 5 µM | ≤ 5 µM | ≤ 5 µM |  | ≤ 5 µM
NCCCn1cc(-c2ccccc2Cl)c2cc(CN3CCN(Cc4c(Cl)cccc4Cl)CC3)ccc21 [C167; HCl] | ≤ 5 µM | ≤ 5 µM | ≤ 5 µM |  | 
NCCCn1cc(-c2ccc(OC(F)(F)F)cc2)c2cc(CN3CCN(Cc4cccc(C(F)(F)F)c4Cl)CC3)ccc21 [C155; HCl] | ≤ 5 µM | ≤ 5 µM | ≤ 5 µM |  | 
NCCCn1cc(-c2ccc(OC(F)(F)F)cc2)c2cc(CN3CCN(Cc4cccc(OC(F)(F)F)c4)CC3)ccc21 [C163; HCl] | ≤ 5 µM | ≤ 5 µM | ≤ 5 µM |  | 
CN(CCN(C)Cc1ccccc1Cl)Cc1ccc2c(c1)c(-c1ccc(OC(F)(F)F)cc1)cn2CCCN [C172; HCl] | ≤ 5 µM | ≤ 5 µM | ≤ 5 µM |  | 
NCCCn1cc(-c2ccc(OC(F)(F)F)cc2)c2cc(CN3CCN(CC(F)(F)F)CC3)ccc21 [C160; HCl] | ≤ 5 µM | ≤ 5 µM | ≤ 5 µM |  | 
NCCCn1cc(-c2ccc(CN)cc2)c2cc(CN3CCN(Cc4c(Cl)cccc4Cl)CC3)ccc21 [C10; Formic acid] | ≤ 5 µM | ≤ 5 µM | ≤ 5 µM |  | 
NCCN(CCN)CCCn1cc(-c2ccc(OC(F)(F)F)cc2)c2cc(CN3CCN(Cc4c(Cl)cccc4Cl)CC3)ccc21 [C7; Formic acid] | ≤ 5 µM | ≤ 5 µM | ≤ 5 µM |  | 
NCCCn1cc(-c2cccc(CN)c2)c2cc(CN3CCN(Cc4c(Cl)cccc4Cl)CC3)ccc21 [C168; HCl] | ≤ 5 µM | ≤ 5 µM | ≤ 5 µM |  | ≤ 5 µM
N#Cc1cccc(-c2cccc(Cl)c2CN2CCN(Cc3ccc4c(c3)c(-c3cccc(C#N)c3)cn4CCCN)CC2)c1 [C4; HCl] | ≤ 5 µM | ≤ 5 µM | ≤ 5 µM |  | 
NCCCn1cc(-c2ccc(OC(F)(F)F)cc2)c2cc(CN3CCC4(CC3)CCN(Cc3ccccc3Cl)C4)ccc21 [C5; HCl] | ≤ 5 µM | ≤ 5 µM | ≤ 5 µM |  | 
COc1ccccc1-c1cn(CCCN)c2ccc(CN3CCN(Cc4c(Cl)cccc4Cl)CC3)cc12 [C2; HCl] | ≤ 5 µM | ≤ 5 µM | ≤ 5 µM |  | 
COc1ccc(-c2cn(CCCN)c3ccc(CN4CC5CCC(C4)N5Cc4ccccc4Cl)cc23)cc1 [C158; HCl] | ≤ 5 µM | ≤ 5 µM | ≤ 5 µM |  | 
CCc1ccc(-c2cn(CCCN)c3ccc(CN4CC5CCC(C4)N5Cc4ccccc4Cl)cc23)cc1 [C157; HCl] | ≤ 5 µM | ≤ 5 µM | ≤ 5 µM |  | 

SMILES | EC50 [1] | EC50 [2] | EC50 [3] | EC50 [4] | EC50 [5]
COc1cc(CN2CCN(Cc3ccc4c(c3)c(-c3ccc(OC(F)(F)F)cc3)cn4CCCN)CC2)cc(OC)c1 [C11; HCl] | ≤ 5 µM | ≤ 5 µM | ≤ 5 µM |  | 
NCCCn1cc(-c2ccc(OC(F)(F)F)cc2)c2cc(CN3CCN(Cc4cccc(F)c4Cl)CC3)ccc21 [C19; HCl] | ≤ 5 µM | ≤ 5 µM |  | ≤ 5 µM | 
NCCCn1cc(-c2ccc(N)nc2)c2cc(CN3CCN(Cc4c(Cl)cccc4Cl)CC3)ccc21 [C18; HCl] | ≤ 5 µM | ≤ 5 µM |  | ≤ 5 µM | 
COc1ccc(-c2cn(CCCN)c3ccc(CN4CCN(Cc5c(Cl)cccc5Cl)CC4)cc23)cc1 [C22; Formic acid] | ≤ 5 µM | ≤ 5 µM | ≤ 5 µM | ≤ 5 µM | 
COc1ccc(F)c(CN2CCN(Cc3ccc4c(c3)c(-c3ccc(OC(F)(F)F)cc3)cn4CCCN)CC2)c1 [C1; HCl] | ≤ 5 µM | ≤ 5 µM | ≤ 5 µM |  | 
NCCCn1cc(-c2ccc(O)cc2)c2cc(CN3CCN(Cc4c(Cl)cccc4Cl)CC3)ccc21 [C44; HCl] | ≤ 5 µM | ≤ 5 µM |  | ≤ 5 µM | 
NCCCn1cc(-c2ccccc2CN)c2cc(CN3CCN(Cc4c(Cl)cccc4Cl)CC3)ccc21 [C162; HCl] |  |  | ≤ 5 µM |  | ≤ 5 µM
CC(C)(N)C(=O)NCCCn1cc(-c2ccc(OC(F)(F)F)cc2)c2cc(CN3CCN(Cc4c(Cl)cccc4Cl)CC3)ccc21 [C46; HCl] | ≤ 5 µM | ≤ 5 µM |  | ≤ 5 µM | 
COc1cccc(CN2CCN(Cc3ccc4c(c3)c(-c3ccc(OC(F)(F)F)cc3)cn4CCCN)CC2)c1Cl [C12; HCl] | ≤ 5 µM | ≤ 5 µM | ≤ 5 µM |  | 
NCCCn1cc(-c2ccccc2)c2cc(CN3CCN(Cc4c(Cl)cccc4Cl)CC3)ccc21 [C37; HCl] | 5 to 10 µM | ≤ 5 µM |  | 5 to 10 µM | 
N#Cc1ccccc1-c1cn(CCCN)c2ccc(CN3CCN(Cc4c(Cl)cccc4Cl)CC3)cc12 [C8; HCl] | ≤ 5 µM | ≤ 5 µM | ≤ 5 µM |  | 
NCCCn1cc(-c2ccc(OC(F)(F)F)cc2)c2cc(CN3CCC(Cc4ccccc4Cl)CC3)ccc21 [C3; HCl] | ≤ 5 µM | ≤ 5 µM | ≤ 5 µM |  | 
NCCCn1cc(-c2ccc(OC(F)(F)F)cc2)c2cc(CN3CCC4(CCN(Cc5ccccc5Cl)CC4)C3)ccc21 [C169; HCl] | ≤ 5 µM | ≤ 5 µM | ≤ 5 µM |  | ≤ 5 µM
NC1(C(=O)NCCCn2cc(-c3ccccc3)c3cc(CN4CCN(Cc5c(Cl)cccc5Cl)CC4)ccc32)CCNCC1 [C24; HCl] | ≤ 5 µM | ≤ 5 µM |  | ≤ 5 µM | 
NCCCn1cc(-c2ccc(OC(F)(F)F)cc2)c2cc(CC3CCN(Cc4ccccc4Cl)CC3)ccc21 [C159; HCl] | ≤ 5 µM | ≤ 5 µM | ≤ 5 µM |  | 
NCC(=O)NCCCn1cc(-c2ccc(OC(F)(F)F)cc2)c2cc(CN3CCN(Cc4c(Cl)cccc4Cl)CC3)ccc21 [C52; HCl] | ≤ 5 µM | ≤ 5 µM |  | ≤ 5 µM | 
NCCCn1cc(-c2ccc(OC(F)(F)F)cc2)c2cc(CN3CCN(Cc4cc(Cl)ccc4Cl)CC3)ccc21 [C156; HCl] | ≤ 5 µM | ≤ 5 µM | ≤ 5 µM |  | ≤ 5 µM
NCCCn1cc(-c2ccc(N)cc2)c2cc(CN3CCN(Cc4c(Cl)cccc4Cl)CC3)ccc21 [C50; HCl] | ≤ 5 µM | ≤ 5 µM |  | ≤ 5 µM | 
